Experiments:
Digitaria sanguinalis = experiment: Weed spectrum, greenhouse pot test; assay type: in vivo; conditions: two weeks after application
Outline: (§1)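 Seeds of each species were sown into pots filled with sandy loam and top soil (1:1) and kept in a greenhouse. Test chemical was sprayed immediately after sowing (pre-emergence) or after two weeks' growth to about three-leaf stage (post-emergence). Efficacy was judged visually after two weeks, from 0 (none) to 100.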

Veronica officinalis = experiment: Weed spectrum, greenhouse pot test; assay type: in vivo; conditions: two weeks after application
Outline: as §1

Perennial rye grass = experiment: Turf grass selectivity, greenhouse pot test; assay type: in vivo
Outline: (§2)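 Turf mats transplanted to pots of sandy loam/top soil (1:1), mown weekly to 0.5-1.0 cm and grown one month in greenhouse (25˜30° C. day, 15˜25° C. night). Test chemicals sprayed at 400, 200, 100, 50, 25, 12, 6, 3 g ai/ha in 2,000 L/ha tap-water dilution; three replicates, randomised, averaged.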

Zoysia japonica = experiment: Turf grass selectivity, greenhouse pot test; assay type: in vivo; conditions: for phytotoxicity (visual assessment 0-10): Zoysia japonica
Outline: as §2

Kentucky bluegrass = experiment: Turf grass selectivity, greenhouse pot test; assay type: in vivo, Poa pratensis
Outline: as §2

Bentgrass = experiment: Turf grass selectivity, greenhouse pot test; assay type: in vivo, Agrostris palustris
Outline: as §2

Dandelion = experiment: Weed spectrum, greenhouse pot test; assay type: in vivo; conditions: two weeks after application

## COc1cc(OC)nc(NC(=O)NS(=O)(=O)c2ncccc2C(F)(F)F)n1 [Control chemical No. 2, Flazasulfuron, reference compound]
Digitaria sanguinalis; Post-emergence, 12 g ai/ha
  efficacy (0-100 scale): 50
Digitaria sanguinalis; Post-emergence, 25 g ai/ha
  efficacy (0-100 scale): 70
Digitaria sanguinalis; Post-emergence, 50 g ai/ha
  efficacy (0-100 scale): 80
Digitaria sanguinalis; Post-emergence, 100 g ai/ha
  efficacy (0-100 scale): 80
Digitaria sanguinalis; Pre-emergence, 12 g ai/ha
  efficacy (0-100 scale): 60
Digitaria sanguinalis; Pre-emergence, 25 g ai/ha
  efficacy (0-100 scale): 70
Digitaria sanguinalis; Pre-emergence, 50 g ai/ha
  efficacy (0-100 scale): 90
Digitaria sanguinalis; Pre-emergence, 100 g ai/ha
  efficacy (0-100 scale): 100
Veronica officinalis; Post-emergence, 12 g ai/ha
  efficacy (0-100 scale): 10
Veronica officinalis; Post-emergence, 25 g ai/ha
  efficacy (0-100 scale): 20
Veronica officinalis; Post-emergence, 50 g ai/ha
  efficacy (0-100 scale): 30
Veronica officinalis; Post-emergence, 100 g ai/ha
  efficacy (0-100 scale): 40
Veronica officinalis; Pre-emergence, 12 g ai/ha
  efficacy (0-100 scale): 20
Veronica officinalis; Pre-emergence, 25 g ai/ha
  efficacy (0-100 scale): 30
Veronica officinalis; Pre-emergence, 50 g ai/ha
  efficacy (0-100 scale): 50
Veronica officinalis; Pre-emergence, 100 g ai/ha
  efficacy (0-100 scale): 60
Perennial rye grass; 3 g ai/ha, 2 weeks
  phytotoxicity (visual assessment 0-10): 10
Perennial rye grass; 3 g ai/ha, 4 weeks
  phytotoxicity (visual assessment 0-10): 10
Perennial rye grass; 6 g ai/ha, 2 weeks
  phytotoxicity (visual assessment 0-10): 10
Perennial rye grass; 6 g ai/ha, 4 weeks
  phytotoxicity (visual assessment 0-10): 10
Perennial rye grass; 12 g ai/ha, 2 weeks
  phytotoxicity (visual assessment 0-10): 10
Perennial rye grass; 12 g ai/ha, 4 weeks
  phytotoxicity (visual assessment 0-10): 10
Perennial rye grass; 25 g ai/ha, 2 weeks
  phytotoxicity (visual assessment 0-10): 10
Perennial rye grass; 25 g ai/ha, 4 weeks
  phytotoxicity (visual assessment 0-10): 10
Perennial rye grass; 50 g ai/ha, 2 weeks
  phytotoxicity (visual assessment 0-10): 10
Perennial rye grass; 50 g ai/ha, 4 weeks
  phytotoxicity (visual assessment 0-10): 10
Perennial rye grass; 100 g ai/ha, 2 weeks
  phytotoxicity (visual assessment 0-10): 10
Perennial rye grass; 100 g ai/ha, 4 weeks
  phytotoxicity (visual assessment 0-10): 10
Perennial rye grass; 200 g ai/ha, 2 weeks
  phytotoxicity (visual assessment 0-10): 10
Perennial rye grass; 200 g ai/ha, 4 weeks
  phytotoxicity (visual assessment 0-10): 10
Perennial rye grass; 400 g ai/ha, 2 weeks
  phytotoxicity (visual assessment 0-10): 10
Perennial rye grass; 400 g ai/ha, 4 weeks
  phytotoxicity (visual assessment 0-10): 10
Zoysia japonica; 50 g ai/ha or less
  safety to Zoysia japonica: safe
Zoysia japonica; 3 g ai/ha, 2 weeks
  phytotoxicity (visual assessment 0-10): 0
Zoysia japonica; 3 g ai/ha, 4 weeks
  phytotoxicity (visual assessment 0-10): 0
Zoysia japonica; 6 g ai/ha, 2 weeks
  phytotoxicity (visual assessment 0-10): 0
Zoysia japonica; 6 g ai/ha, 4 weeks
  phytotoxicity (visual assessment 0-10): 0
Zoysia japonica; 12 g ai/ha, 2 weeks
  phytotoxicity (visual assessment 0-10): 0
Zoysia japonica; 12 g ai/ha, 4 weeks
  phytotoxicity (visual assessment 0-10): 0
Zoysia japonica; 25 g ai/ha, 2 weeks
  phytotoxicity (visual assessment 0-10): 0
Zoysia japonica; 25 g ai/ha, 4 weeks
  phytotoxicity (visual assessment 0-10): 0
Zoysia japonica; 50 g ai/ha, 2 weeks
  phytotoxicity (visual assessment 0-10): 1
Zoysia japonica; 50 g ai/ha, 4 weeks
  phytotoxicity (visual assessment 0-10): 1
Zoysia japonica; 100 g ai/ha, 2 weeks
  phytotoxicity (visual assessment 0-10): 2
Zoysia japonica; 100 g ai/ha, 4 weeks
  phytotoxicity (visual assessment 0-10): 2
Zoysia japonica; 200 g ai/ha, 2 weeks
  phytotoxicity (visual assessment 0-10): 4
Zoysia japonica; 200 g ai/ha, 4 weeks
  phytotoxicity (visual assessment 0-10): 3
Zoysia japonica; 400 g ai/ha, 2 weeks
  phytotoxicity (visual assessment 0-10): 7
Zoysia japonica; 400 g ai/ha, 4 weeks
  phytotoxicity (visual assessment 0-10): 6
Kentucky bluegrass; 3 g ai/ha, 2 weeks
  phytotoxicity (visual assessment 0-10): 10
Kentucky bluegrass; 3 g ai/ha, 4 weeks
  phytotoxicity (visual assessment 0-10): 10
Kentucky bluegrass; 6 g ai/ha, 2 weeks
  phytotoxicity (visual assessment 0-10): 10
Kentucky bluegrass; 6 g ai/ha, 4 weeks
  phytotoxicity (visual assessment 0-10): 10
Kentucky bluegrass; 12 g ai/ha, 2 weeks
  phytotoxicity (visual assessment 0-10): 10
Kentucky bluegrass; 12 g ai/ha, 4 weeks
  phytotoxicity (visual assessment 0-10): 10
Kentucky bluegrass; 25 g ai/ha, 2 weeks
  phytotoxicity (visual assessment 0-10): 10
Kentucky bluegrass; 25 g ai/ha, 4 weeks
  phytotoxicity (visual assessment 0-10): 10
Kentucky bluegrass; 50 g ai/ha, 2 weeks
  phytotoxicity (visual assessment 0-10): 10
Kentucky bluegrass; 50 g ai/ha, 4 weeks
  phytotoxicity (visual assessment 0-10): 10
Kentucky bluegrass; 100 g ai/ha, 2 weeks
  phytotoxicity (visual assessment 0-10): 10
Kentucky bluegrass; 100 g ai/ha, 4 weeks
  phytotoxicity (visual assessment 0-10): 10
Kentucky bluegrass; 200 g ai/ha, 2 weeks
  phytotoxicity (visual assessment 0-10): 10
Kentucky bluegrass; 200 g ai/ha, 4 weeks
  phytotoxicity (visual assessment 0-10): 10
Kentucky bluegrass; 400 g ai/ha, 2 weeks
  phytotoxicity (visual assessment 0-10): 10
Kentucky bluegrass; 400 g ai/ha, 4 weeks
  phytotoxicity (visual assessment 0-10): 10
Bentgrass; 3 g ai/ha, 2 weeks
  phytotoxicity (visual assessment 0-10): 10
Bentgrass; 3 g ai/ha, 4 weeks
  phytotoxicity (visual assessment 0-10): 10
Bentgrass; 6 g ai/ha, 2 weeks
  phytotoxicity (visual assessment 0-10): 10
Bentgrass; 6 g ai/ha, 4 weeks
  phytotoxicity (visual assessment 0-10): 10
Bentgrass; 12 g ai/ha, 2 weeks
  phytotoxicity (visual assessment 0-10): 10
Bentgrass; 12 g ai/ha, 4 weeks
  phytotoxicity (visual assessment 0-10): 10
Bentgrass; 25 g ai/ha, 2 weeks
  phytotoxicity (visual assessment 0-10): 10
Bentgrass; 25 g ai/ha, 4 weeks
  phytotoxicity (visual assessment 0-10): 10
Bentgrass; 50 g ai/ha, 2 weeks
  phytotoxicity (visual assessment 0-10): 10
Bentgrass; 50 g ai/ha, 4 weeks
  phytotoxicity (visual assessment 0-10): 10
Bentgrass; 100 g ai/ha, 2 weeks
  phytotoxicity (visual assessment 0-10): 10
Bentgrass; 100 g ai/ha, 4 weeks
  phytotoxicity (visual assessment 0-10): 10
Bentgrass; 200 g ai/ha, 2 weeks
  phytotoxicity (visual assessment 0-10): 10
Bentgrass; 200 g ai/ha, 4 weeks
  phytotoxicity (visual assessment 0-10): 10
Bentgrass; 400 g ai/ha, 2 weeks
  phytotoxicity (visual assessment 0-10): 10
Bentgrass; 400 g ai/ha, 4 weeks
  phytotoxicity (visual assessment 0-10): 10
Dandelion; Post-emergence, 12 g ai/ha
  efficacy (0-100 scale): 10
Dandelion; Post-emergence, 25 g ai/ha
  efficacy (0-100 scale): 30
Dandelion; Post-emergence, 50 g ai/ha
  efficacy (0-100 scale): 40
Dandelion; Post-emergence, 100 g ai/ha
  efficacy (0-100 scale): 50
Dandelion; Pre-emergence, 12 g ai/ha
  efficacy (0-100 scale): 30
Dandelion; Pre-emergence, 25 g ai/ha
  efficacy (0-100 scale): 40
Dandelion; Pre-emergence, 50 g ai/ha
  efficacy (0-100 scale): 50
Dandelion; Pre-emergence, 100 g ai/ha
  efficacy (0-100 scale): 70
